Experimental data reported in patent US9278915B2, “Agonists of GPR40” (CONNEXIOS LIFE SCIENCES PVT LTD, priority 2010, dated 2016).

Molecular target: T1, hGPR40 (Homo sapiens, UniProt O14842)
T1 construct: expressed in transfected cells
Experiment: Calcium flux assay to detect GPR40 activation
Format: cell-based
Conditions: CHO-K cells stably expressing hGPR40; Fluo-4 NW; read for 4 min at 5 s intervals
Method: Biological Activity Calium Flux Assay to Detect GPR40 Activation: CHO-K cells stably expressing hGPR40 were selected in a media containing Neomycin/G418. The cells were plated at a concentration of 20,000 cells per well in black 96-well clear bottom tissue culture treated plates. The cells were cultured for 24 h at 37° C. in a humidified 5% CO2 air environment to allow for protein expression. The next day, after removal of media from wells, Fluo-4 NW (Invitrogen) is added at 100 ul/well and the cells were incubated for 30 min at 37° C. and for a further 30 min at RT. All test compounds were diluted to appropriate concentrations in HEPES buffer. Compounds were added to the cells and the wells were read in the BioTEK synergy reader and readings were taken for 4 min with an interval of 5 s.

T1 sequence (O14842 whole entry): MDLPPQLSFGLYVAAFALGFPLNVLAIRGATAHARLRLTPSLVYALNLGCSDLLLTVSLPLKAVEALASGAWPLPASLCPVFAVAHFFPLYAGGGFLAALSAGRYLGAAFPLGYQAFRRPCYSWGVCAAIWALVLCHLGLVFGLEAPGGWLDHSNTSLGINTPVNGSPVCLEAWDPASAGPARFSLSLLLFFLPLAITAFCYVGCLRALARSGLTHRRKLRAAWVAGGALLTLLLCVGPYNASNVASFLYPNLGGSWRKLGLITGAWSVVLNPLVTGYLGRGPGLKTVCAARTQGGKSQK

In the case of CO/N=C(\COc1cccc(COc2ccc(CC(C#N)C(=O)O)cc2)c1)c1ccccc1 (stereo not drawn) [Compound 8, 2-Cyano-3-{4-[(3-{[(2E,2Z)-2-(methoxyimino)-2-phenylethyl]oxy}benzyl)oxy]phenyl}propanoic acid], the EC50 is reported as > 0.1 µM.

For CO/N=C(/COc1ccc(COc2ccc(C(C#N)CC(=O)O)cc2)cc1)c1cccc(C)c1 (racemic) [Compound 27, 3-Cyano-3-{4-[(4-{[(2E,2Z)-2-(methoxyimino)-2-(3-methylphenyl)ethyl]oxy}benzyl)oxy]phenyl}propanoic acid], the EC50 was 0.01 to 0.1 µM.

Work on CO/N=C(\COc1ccc(COc2ccc(/C(C#N)=C/C(=O)O)cc2)cc1)c1ccccc1 [Compound 76, (2Z)-3-Cyano-3-{4-[(4-{[(2Z)-2-(methoxyimino)-2-phenylethyl]oxy}benzyl)oxy]phenyl}prop-2-enoic acid] yielded an EC50 of 0.01 to 0.1 µM.

In the case of CO/N=C(\COc1ccc(COc2ccc(CCC(=O)O)c(O)c2)cc1)c1ccccc1 [Compound 96, 3-{2-Hydroxy-4-[(4-{[(2Z)-2-(methoxyimino)-2-phenylethyl]oxy}benzyl)oxy]phenyl}propanoic acid], the EC50 is reported as > 0.1 µM.

CO/N=C(\COc1ccc(COc2ccc(CCC(=O)O)cc2)cc1)c1sc2c(c1C)C(C)(C)CCC2(C)C [Compound 106, 3-{4-[(4-{[(2E)-2-(Methoxyimino)-2-(3,4,4,7,7-pentamethyl-4,5,6,7-tetrahydro-1-benzothiophen-2-yl)ethyl]oxy}benzyl)oxy]phenyl}propanoic acid] was tested, and the EC50 was > 0.1 µM.

O=C(O)CCc1ccc(NCc2cccc(/C(=N\OCC(F)(F)F)c3ccccc3)c2)cc1 [Compound 9, 3-{4-[(3-{(E,Z)-Phenyl[(2,2,2-trifluoroethoxy)imino]methyl}benzyl)amino]phenyl}propanoic acid] was tested, and the EC50 was > 0.1 µM.

In the case of CO/N=C(/COc1ccc(COc2ccc(C(C#N)CC(=O)O)cc2)cc1)c1ccc(C#N)cc1 (racemic) [Compound 33, 3-Cyano-3-{4-[(4-{[(2E,2Z)-2-(4-cyanophenyl)-2-(methoxyimino)ethyl]oxy}benzyl)oxy]phenyl}propanoic acid], the EC50 is reported as < 0.01 µM.

In the case of CO/N=C(\COc1ccc(COc2ccc(OCC(=O)O)cc2)cc1)c1ccccc1 [Compound 117, {4-[(4-{[(2Z)-2-(Methoxyimino)-2-phenylethyl]oxy}benzyl)oxy]phenoxy}acetic acid], the EC50 is reported as > 0.1 µM.

For CO/N=C(\COc1ccc(COc2ccc(C(C#N)CC(=O)O)cc2)cc1)c1ccc(OC)cc1 (stereo not drawn) [Compound 66, 3-Cyano-3-{4-[(4-{[(2Z)-2-(methoxyimino)-2-(4-methoxyphenyl)ethyl]oxy}benzyl)oxy]phenyl}propanoic acid], the EC50 was < 0.01 µM.

For CO/N=C(\COc1ccc(COc2ccc(/C(CC(=O)O)=N\Oc3ccccc3)cc2)cc1)c1ccccc1 [Compound 123, (3E,3Z)-3-{4-[(4-{[(2Z)-2-(Methoxyimino)-2-phenylethyl]oxy}benzyl)oxy]phenyl}-3-(phenoxyimino) propanoic acid], the EC50 was > 0.1 µM.

Molecule CO/N=C(/COc1ccc(COc2ccc(C(C#N)CC(=O)O)cc2)cc1)c1ccccc1 (stereo not drawn) [Compound 53, Sodium 3-cyano-3-{4-[(4-{[(2E)-2-(methoxyimino)-2-phenylethyl]oxy}benzyl)oxy]phenyl}propanoate] has an EC50 of 0.01 to 0.1 µM.

CO/N=C(\COc1ccc(COc2ccc3c(c2)OCC3CC(=O)O)cc1)c1ccccc1 (stereo not drawn) [Compound 73, {6-[(4-{[(2Z)-2-(Methoxyimino)-2-phenylethyl]oxy}benzyl)oxy]-2,3-dihydro-1-benzofuran-3-yl}acetic acid] showed an EC50 of 0.01 to 0.1 µM.

CO/N=C(\COc1ccc(COc2ccc(C(C)(C#N)CC(=O)O)cc2)cc1)c1ccccc1 (stereo not drawn) [Compound 59, 3-Cyano-3-{4-[(4-{[(2Z)-2-(methoxyimino)-2-phenylethyl]oxy}benzyl)oxy]phenyl}butanoic acid] was tested, and the EC50 was > 0.1 µM.

CO/N=C(\COc1ccc(COc2ccc(C3CC3C(=O)O)cc2)cc1)c1ccc(OC)cc1 (stereo not drawn) [Compound 57, Sodium 2-{4-[(4-{[(2Z)-2-(methoxyimino)-2-(4-methoxyphenyl)ethyl]oxy}benzyl)oxy]phenyl}cyclopropanecarboxylate] was tested, and the EC50 was 0.01 to 0.1 µM.

For CO/N=C(/c1ccccc1)c1cccc(CNc2ccc(CCC(=O)O)cc2)c1 [Compound 2, 3-[4-({3-[(E,Z)-(Methoxyimino)(phenyl)methyl]benzyl}amino)phenyl]propanoic acid], the EC50 was 0.01 to 0.1 µM.

In the case of CO/N=C(\COc1ccc(COc2ccc(CCC(=O)O)cc2)cn1)c1ccccc1 [Compound 20, 3-{4-[(6-{[(2Z)-2-(Methoxyimino)-2-phenylethyl]oxy}pyridin-3-yl)methoxy]phenyl}propanoic acid], the EC50 is reported as > 0.1 µM.

With CO/N=C(\COc1ccc(COc2ccc(CCC(=O)O)c(-c3c(C)noc3C)c2)cc1)c1ccccc1 [Compound 84, 3-{2-(3,5-Dimethyl-1,2-oxazol-4-yl)-4-[(4-{[(2E,2Z)-2-(methoxyimino)-2-phenylethyl]oxy}benzyl)oxy]phenyl}propanoic acid] the EC50 was > 0.1 µM.

With CO/N=C(\COc1ccc(COc2ccc(C(C#N)CC(=O)O)cc2)cc1F)c1ccccc1 (stereo not drawn) [Compound 50, Sodium 3-cyano-3-{4-[(3-fluoro-4-{[(2Z)-2-(methoxyimino)-2-phenylethyl]oxy}benzyl)oxy]phenyl}propanoate] the EC50 was < 0.01 µM.

In the case of CO/N=C(\COc1ccc(COc2ccc(CCC(=O)O)c(F)c2)cc1)c1ccccc1 [Compound 71, Sodium 3-{2-fluoro-4-[(4-{[(2Z)-2-(methoxyimino)-2-phenylethyl]oxy}benzyl)oxy]phenyl}propanoate], the EC50 is reported as > 0.1 µM.

Molecule CO/N=C(\COc1ccc(COc2ccc(C3CC3C(=O)O)cc2)cc1)c1ccc(OC)cc1 (stereo not drawn) [Compound 46, 2-{4-[(4-{[(2Z)-2-(Methoxyimino)-2-(4-methoxyphenyl)ethyl]oxy}benzyl)oxy]phenyl}cyclopropanecarboxylic acid] has an EC50 of 0.01 to 0.1 µM.

For CO/N=C(\COc1ccc(COc2ccc(C3CC3C(=O)O)cc2)cc1)c1ccc(C#N)cc1 (stereo not drawn) [Compound 45, 2-{4-[(4-{[(2Z)-2-(4-Cyanophenyl)-2-(methoxyimino)ethyl]oxy}benzyl)oxy]phenyl}cyclopropanecarboxylic acid], the EC50 was 0.01 to 0.1 µM.

CO/N=C(\COc1ccc(COc2ccc(C(C#N)CC(=O)O)cc2)cc1)c1ccc2c(c1)CCO2 (stereo not drawn) [Compound 102, 3-Cyano-3-{4-[(4-{[(2Z)-2-(2,3-dihydro-1-benzofuran-5-yl)-2-(methoxyimino)ethyl]oxy}benzyl)oxy]phenyl}propanoic acid] was tested, and the EC50 was 0.01 to 0.1 µM.

Molecule CO/N=C(\COc1ccc(COc2ccc(C(C#N)CC(=O)O)cc2)cc1)c1ccccc1 (single isomer, unassigned; (+)) [Compound 81, (+)-Sodium 3-cyano-3-{4-[(4-{[(2Z)-2-(methoxyimino)-2-phenylethyl]oxy}benzyl)oxy]phenyl}propanoate] has an EC50 of 0.01 to 0.1 µM.

C=CCO/N=C(/CC(=O)O)c1ccc(OCc2ccc(OCC(=NOC)c3ccccc3)cc2)cc1 (mixture of isomers) [Compound 121, (3Z)-3-{4-[(4-{[(2E,2Z)-2-(Methoxyimino)-2-phenylethyl]oxy}benzyl)oxy]phenyl}-3-[(prop-2-en-1-yloxy)imino]propanoic acid] was tested, and the EC50 was > 0.1 µM.

Molecule CO/N=C(\COc1ccc(COc2ccc(CCC(=O)O)c(F)c2)cc1OC)c1ccccc1 [Compound 41, 3-{2-Fluoro-4-[(3-methoxy-4-{[(2E,2Z)-2-(methoxyimino)-2-phenylethyl]oxy}benzyl)oxy]phenyl}propanoic acid] has an EC50 of 0.01 to 0.1 µM.

In the case of CO/N=C(\COc1ccc(COc2ccc(C3CC3C(=O)O)cc2)cc1)c1ccc(C#N)cc1 (stereo not drawn) [Compound 51, Sodium 2-{4-[(4-{[(2Z)-2-(4-cyanophenyl)-2-(methoxyimino)ethyl]oxy}benzyl)oxy]phenyl}cyclopropanecarboxylate], the EC50 is reported as < 0.01 µM.

CON=C(COc1ccc(CNc2ccc(C3CC3C(=O)O)cc2)cc1)c1ccccc1 (mixture of isomers) [Compound 48, Sodium 2-{4-[(4-{[(2E,2Z)-2-(methoxyimino)-2-phenylethyl]oxy}benzyl)amino]phenyl}cyclopropanecarboxylate] was tested, and the EC50 was 0.01 to 0.1 µM.

With CO/N=C(\COc1ccc(COc2ccc(CCC(=O)O)cc2OC)cc1)c1ccccc1 [Compound 94, 3-{3-Methoxy-4-[(4-{[(2Z)-2-(methoxyimino)-2-phenylethyl]oxy}benzyl)oxy]phenyl}propanoic acid] the EC50 was > 0.1 µM.

CO/N=C(\COc1ccc(COc2ccc(CCC(=O)O)c(OC)c2)cc1)c1ccc(C#N)cc1 [Compound 43, 3-{4-[(4-{[(2Z)-2-(4-Cyanophenyl)-2-(methoxyimino)ethyl]oxy}benzyl)oxy]-2-methoxyphenyl}propanoic acid] was tested, and the EC50 was > 0.1 µM.

CO/N=C(\COc1ccc(COc2ccc(C(C#N)CC(=O)O)cc2)cc1)c1cccc(F)c1 (stereo not drawn) [Compound 35, 3-Cyano-3-{4-[(4-{[(2Z)-2-(3-fluorophenyl)-2-(methoxyimino)ethyl]oxy}benzyl)oxy]phenyl}propanoic acid] was tested, and the EC50 was 0.01 to 0.1 µM.

For CO/N=C(\COc1ccc(COc2ccc(C(CC(=O)O)c3ccon3)cc2)cc1)c1ccccc1 (stereo not drawn) [Compound 17, 3-{4-[(4-{[(2Z)-2-(methoxyimino)-2-phenylethyl]oxy}benzyl)oxy]phenyl}-3-(1,2-oxazol-3-yl)propanoic acid], the EC50 was 0.01 to 0.1 µM.

CO/N=C(\COc1ccc(COc2ccc(C(CC(=O)O)c3c(C)noc3C)cc2)cc1)c1ccccc1 (stereo not drawn) [Compound 67, 3-(3,5-Dimethyl-1,2-oxazol-4-yl)-3-{4-[(4-{[(2E,2Z)-2-(methoxyimino)-2-phenylethyl]oxy}benzyl)oxy]phenyl}propanoic acid] was tested, and the EC50 was > 0.1 µM.

In the case of CO/N=C(\COc1ccc(COc2ccc(C3CC3C(=O)O)cc2)cc1)c1ccc(C#N)cc1 (single isomer, unassigned) [Compound 80, Sodium 2-{4-[(4-{[(2Z)-2-(4-cyanophenyl)-2-(methoxyimino)ethyl]oxy}benzyl)oxy]phenyl}cyclopropanecarboxylate], the EC50 is reported as < 0.01 µM.
